Assay: Double-blind 4-week study plus open-label extension of febuxostat in hyperuricemic subjects with gout and a history of nephrolithiasis
Assay type: in vivo, human
Method: Eighteen (18) hyperuricemic subjects with gout and a history of nephrolithiasis in their medical history were examined. Specifically, these eighteen subjects were part of a double-blind (DB) four (4) week study in which they received 40, 80 or 120 mg once daily (hereinafter referred to as “QD”) of 2-[3-cyano-4-(2-methylpropoxy)phenyl]-4-methylthiazole-5-carboxylic acid (hereinafter called “febuxostat”) or a placebo, followed by an open-label (OL) extension study of febuxostat 80 mg QD titrated to 40 mg or 120 mg QD of febuxostat based on serum uric acid levels and adverse events. The subjects were predominantly male (specifically, sixteen (16)) Caucasian, with a mean age of 55 years. Eleven (11) of the subjects had gout for more than 10 years, five (5) subjects had gout for between 5 to 10 years and two (2) subjects had gout for between 1 to 5 years. Overall, subject experienced between 1 and 20 attacks over a 2 to 45 year period prior to baseline. Twelve (12) of the subjects were classified as renally impaired (their creatinine clearance was <80 ml/minute). Six (6) subjects were considered to be uric acid overproducers (urinary uric acid excretion was greater than 800 mg/day). Comorbid conditions in these subjects included the following: hyperlipidemia (78%), hypertension (72%), obesity (56%) and coronary artery disease (17%). The mean serum urate for these subjects at baseline was 10.0 mg/dL. All subjects completed this DB study. Fifteen (15) subjects rolled over to the OL study with thirteen (13) completing treatment for a duration of greater than thirty (30) months. The majority of subjects (11/13) received daily febuxostat in the amount of 80 mg QD with two (2) subjects having their dose titrated to febuxostat 120 mg QD as per study protocol because of a post-baseline serum urate of ≧6.0 mg/dL.

For `Cc1nc(-c2ccc(OCC(C)C)c(C#N)c2)sc1C(=O)O` [febuxostat, 2-[3-cyano-4-(2-methylpropoxy)phenyl]-4-methylthiazole-5-carboxylic acid], the “subjects reporting kidney stones” value (DB and OL portions, greater than 30 months of febuxostat treatment, three stones in total, one occurred on placebo, all calcium oxalate) was 2 subjects out of the 18 subjects, the adverse events (DB and OL study, febuxostat 40-120 mg QD) was “self-limiting and transient” and the “mean reduction in serum urate” value (at last visit versus baseline, febuxostat 40, 80 or 120 mg QD) was 47%. The “mean serum urate at last visit” value (hyperuricemic gout subjects with history of nephrolithiasis, febuxostat 40, 80 or 120 mg QD, baseline mean serum urate 10.0 mg/dL) was 5.2 mg/dL.

From patent US8841333B2, “Methods for treating nephrolithiasis” (Takeda Pharmaceuticals U.S.A., Inc., priority 2005, dated 2014)
